Data published in ChEMBL document CHEMBL1147354, “Further bioactive cembranolide diterpenes from the gorgonian Eunicea succinea” (J Nat Prod, 1993).
Converted amounts (≈) assume the structure as drawn.

Columns and labels:
Type in all cases: functional, cell-based
HCT-116 = experiment: Cytotoxicity against human HCT116 cells
MCF7 = experiment: Cytotoxicity against human MCF7 cells
CCRF-CEM = experiment: Cytotoxicity against human CCRF-CEM cells
SK-MEL-5 = experiment: Cytotoxicity against human SK-MEL-5 cells

SMILES | IC50 (HCT-116) [µg/mL] | IC50 (MCF7) [µg/mL] | IC50 (CCRF-CEM) [µg/mL] | IC50 (SK-MEL-5) [µg/mL]
C=C1C(=O)O[C@H]2[C@H](OC(C)=O)[C@H](C)CCC/C(C)=C/CC[C@@]3(C)O[C@@H]3C[C@@H]12 | 8 (≈ 21.2 µM) | 8 (≈ 21.2 µM) | ≥ 50 | –
C=C1C(=O)O[C@H]2[C@@H](OC(C)=O)[C@H](C)CCC/C(C)=C/CC[C@@]3(C)O[C@@H]3C[C@@H]12 | 0.4 (≈ 1.06 µM) | 6 (≈ 15.9 µM) | – | 5 (≈ 13.3 µM)
C=C1C(=O)OC2C(=O)[C@H](C)CCC/C(C)=C/CC[C@@]3(C)O[C@@H]3C[C@@H]12 (some centres undefined) [SUCCINOLIDE] | 2 (≈ 6.02 µM) | 3 (≈ 9.02 µM) | ≥ 50 | –
